The source of these data is US9345703B2, “Kappa opioid receptor effectors and uses thereof” (University of Kansas, priority 2011, dated 2016).

Structures are written as SMILES.

Common to all, as to type: cell-based
For assay [1], the target named is T1, KOR (Homo sapiens, UniProt P41145). Put plainly: DISCOVERX β-arrestin […] assay, agonist mode (KOR DRx). To be noted: for EC50: agonist; for Emax (%): at highest concentration tested, compared to dynorphin A (Emax=100%). From the text: (§1) In this campaign, two assay platforms were employed to evaluate KOR activity and selectivity: the KOR1 DISCOVERX β-Arrestin […] assay and an imaging based β-arrestin translocation assay for confirmatory and selectivity assays. The KOR1 DISCOVERX β-Arrestin […] assay is a commercial platform for direct measurement of GPCR (G protein-coupled receptor) activation by detection of β-Arrestin binding to the KOR. […] In cells that stably express these fusion proteins, ligand stimulation results in the recruitment of β-Arrestin by the GPCR. This interaction encourages the complementation of the two β-galactosidase fragments resulting in the formation of a functional enzyme that converts substrate in the assay medium to a detectable signal.

The target in assay [2] is T1, KOR. Put plainly: High content imaging based β-arrestin translocation assay, KOR agonist (KOR HCS). To be noted: n = 2, read-out: Average Potency KOR HCS.
From the text: as §1, with “signal. The imaging based high-content β-arrestin translocation assay is based upon the redistribution of β-Arrestin linked to green fluorescent protein (GFP) to the cell surface and detection (Barak, et al. (1997) J. Biol. Chem. 272:27497-27500).” for “signal.”
(§2) Initially, a portion (approximately 290,000 compounds) of the MLSMR compound collection was tested in the KOR1 DISCOVERX β-arrestin primary kappa opioid (KOP) agonist and antagonist screens (PUBCHEM AID 1777 and 1778, respectively) at a single concentration point (10 μM). […] These compounds were concurrently tested in a β-galactosidase counterscreen assay (PUBCHEM AID 1966) to assess the possibility that these compounds might inhibit the reporting enzyme. […] The KOR:DOR:MOR selectivity of the compounds was determined using the analogous β-arrestin translocation assays for the DOR (PUBCHEM AID 2370 and 2357, for agonists and antagonist, respectively) and the MOR (PUBCHEM AID 2352 and 2420, for agonists and antagonists, respectively).

A further assay concerns the target MOR (Homo sapiens, UniProt P35372). Put plainly: High content imaging based β-arrestin translocation assay, MOR agonist (MOR HCS). The following applies: n = 2, read-out: Average Potency MOR HCS.
From the text: as §1, with “signal. The imaging based high-content β-arrestin translocation assay is based upon the redistribution of β-Arrestin linked to green fluorescent protein (GFP) to the cell surface and detection (Barak, et al. (1997) J. Biol. Chem. 272:27497-27500).” for “signal.”
as §2

The mark [3] stands for this setting: n = 3, read-out: Average Potency KOR DRx.
[4] abbreviates: n = 4, Table 11, read-out: Potency, EC50 (DRx).

T1 sequence (P41145 whole entry, the tested form may be a part): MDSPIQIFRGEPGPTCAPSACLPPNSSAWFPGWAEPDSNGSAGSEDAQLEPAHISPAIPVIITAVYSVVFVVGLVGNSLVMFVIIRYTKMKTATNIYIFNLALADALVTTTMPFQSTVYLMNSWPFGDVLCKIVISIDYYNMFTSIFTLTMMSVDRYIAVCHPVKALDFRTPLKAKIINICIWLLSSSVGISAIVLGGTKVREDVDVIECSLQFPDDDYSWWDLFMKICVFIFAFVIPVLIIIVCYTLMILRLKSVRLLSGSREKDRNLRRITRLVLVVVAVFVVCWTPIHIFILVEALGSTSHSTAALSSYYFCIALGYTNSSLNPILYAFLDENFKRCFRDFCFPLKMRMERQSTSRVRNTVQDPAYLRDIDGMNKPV
MOR, sequence (P35372 whole entry): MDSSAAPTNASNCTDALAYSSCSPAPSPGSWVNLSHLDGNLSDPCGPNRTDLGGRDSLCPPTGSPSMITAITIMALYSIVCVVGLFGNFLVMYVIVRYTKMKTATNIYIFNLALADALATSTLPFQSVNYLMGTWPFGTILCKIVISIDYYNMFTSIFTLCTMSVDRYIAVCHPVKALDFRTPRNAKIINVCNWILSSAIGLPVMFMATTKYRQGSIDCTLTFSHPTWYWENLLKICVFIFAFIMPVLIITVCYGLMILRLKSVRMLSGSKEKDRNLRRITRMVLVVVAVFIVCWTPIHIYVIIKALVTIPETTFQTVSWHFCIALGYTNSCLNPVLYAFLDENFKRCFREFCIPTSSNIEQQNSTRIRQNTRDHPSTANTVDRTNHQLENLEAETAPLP

In general, Emax refers to the size of the effect at its maximum, as opposed to the concentration needed. `CC(C)(C)c1ccc(CSc2nnc(-c3ccccn3)n2Cc2ccco2)cc1` [2{6}] came in with an Emax at KOR [1] of roughly 100%. The EC50 on KOR [1] (setting [3]) is 2.01 ± 0.07 µM; at KOR [2], 0.6 µM; on MOR, greater than 32 µM.

As for `Clc1ccc(CSc2nnc(-c3ccccn3)n2Cc2cccs2)cc1Cl` [2{9}, 2-(5-((3,4-Dichlorobenzyl)thio)-4-(thiophen-2-ylmethyl)-4H-1,2,4-triazol-3-yl)pyridine], the Emax at KOR [1] is roughly 135%. In addition, the EC50 on KOR [1] (setting [3]) was 0.73 ± 0.11 µM; at KOR [2], 0.43 µM; at MOR, greater than 32 µM.

As to `Clc1ccc(CSc2nnc(-c3ccccn3)n2Cc2ccco2)c(Cl)c1` [Compound 2{1}], the EC50 was 1.86 ± 0.07 µM on KOR [1] (setting [3]), 0.93 µM at KOR [2] and greater than 32 µM on MOR. Also, the “Emax (%)” value on KOR [1] was roughly 100%.

For `Clc1ccc(CSc2nnc(-c3ccccn3)n2Cc2cccs2)c(Cl)c1` [Compound 2{2}], the EC50 at KOR [1] (setting [3]) was 2.27 ± 0.46 µM; on KOR [2], 8.11 µM; at MOR, greater than 32 µM. The “Emax (%)” value on KOR [1] is on record as roughly 120%.

`Brc1ccc(CSc2nnc(-c3ccccn3)n2Cc2ccco2)cc1` [Compound 2{3}]: the values for the EC50 at KOR [1] (setting [3]), on KOR [2] and at MOR were 1.92 ± 0.05 µM, 1.36 µM and greater than 32 µM, respectively. In addition, the “Emax (%)” value at KOR [1] was roughly 100%.

For the molecule `Brc1ccc(CSc2nnc(-c3ccccn3)n2Cc2cccs2)cc1` [Compound 2{4}], the EC50 on KOR [1] (setting [3]) was 1.85 ± 0.11 µM; at KOR [2], 1.1 µM; on MOR, greater than 32 µM. Also, the “Emax (%)” value at KOR [1] is listed as roughly 185%.

In turn, `Clc1cccc(CSc2nnc(-c3ccccn3)n2Cc2ccco2)c1` [Compound 2{7}] registered an Emax at KOR [1] of roughly 100%. In addition, the EC50 on KOR [1] (setting [3]) was 6.76 ± 0.01 µM; on KOR [2], 3.63 µM; on MOR, greater than 32 µM.

With `FC(F)(F)c1cc(CSc2nnc(-c3ccccn3)n2Cc2ccco2)ccc1Cl` [Compound 2{10}], the EC50 is 0.5 µM at KOR [1] (setting [3]), 0.46 µM at KOR [2] and greater than 32 µM on MOR. In addition, at KOR [1], the “Emax (%)” value was roughly 122%.

As for `Cc1ccc(CSc2nnc(-c3ccccn3)n2Cc2cccs2)cc1` [Compound 2{13}], the values for the EC50 on KOR [1] (setting [3]), on KOR [2] and on MOR were 3.59 ± 0.3 µM, 2.38 µM and greater than 32 µM, respectively. Also, the “Emax (%)” value on KOR [1] is reported as roughly 170%.

`FC(F)(F)c1ccc(CSc2nnc(-c3ccccn3)n2Cc2ccco2)cc1` [Compound 2{14}]: the EC50 at KOR [1] (setting [3]) is 2.77 µM; on KOR [2] it was 1.25 µM; on MOR, greater than 32 µM. Also, the “Emax (%)” value at KOR [1] is given as roughly 166%.

Regarding `FC(F)(F)c1ccc(CSc2nnc(-c3ccccn3)n2Cc2cccs2)cc1` [Compound 2{15}], the EC50 was 1.23 µM at KOR [1] (setting [3]), 0.6 µM on KOR [2] and greater than 32 µM on MOR. For the same molecule, the “Emax (%)” value at KOR [1] is given as roughly 149%.

`Fc1cc(F)cc(CSc2nnc(-c3ccccn3)n2Cc2ccco2)c1` [Compound 2{16}]: the EC50 is 7.89 µM on KOR [1] (setting [3]), 21 µM at KOR [2] and greater than 32 µM at MOR. The “Emax (%)” value at KOR [1] was roughly 104%.

In the case of `Cc1cc(C)c(CSc2nnc(-c3ccccn3)n2Cc2ccco2)c(C)c1` [Compound 2{18}], the “Emax (%)” value on KOR [1] is recorded as roughly 100%. At MOR, the EC50 was greater than 32 µM.

`Cc1cc(C)c(CSc2nnc(-c3ccccn3)n2Cc2cccs2)c(C)c1` [Compound 2{19}]: the EC50 on KOR [1] (setting [3]) was greater than 20 µM; at KOR [2] it was 9.5 µM; on MOR, greater than 32 µM.

As to `Fc1ccc(CSc2nnc(-c3ccccn3)n2Cc2cccs2)c(F)c1` [Compound 2{24}], the figures for the EC50 on KOR [1] (setting [3]), at KOR [2] and at MOR were 6.74 ± 0.97 µM, 5.68 µM and greater than 32 µM, respectively. Also, on KOR [1], the “Emax (%)” value is on record as roughly 155%.

In the case of `O=[N+]([O-])c1ccc(CSc2nnc(-c3ccccn3)n2Cc2ccco2)cc1` [Compound 2{25}], the EC50 at KOR [1] (setting [3]) was 2.48 µM; on KOR [2], 2.35 µM; on MOR it was greater than 32 µM. In addition, the “Emax (%)” value on KOR [1] is given as roughly 120%.

As for `O=[N+]([O-])c1ccc(CSc2nnc(-c3ccccn3)n2Cc2cccs2)cc1` [Compound 2{26}], the EC50 on KOR [1] (setting [3]) is 1.24 µM; on KOR [2], 0.96 µM; at MOR it was greater than 32 µM. The “Emax (%)” value on KOR [1] was roughly 128%.

On to `N#Cc1ccc(CSc2nnc(-c3ccccn3)n2Cc2ccco2)cc1` [Compound 2{27}], for which the EC50 is 6.79 µM at KOR [1] (setting [3]), 19 µM on KOR [2] and greater than 32 µM at MOR. On KOR [1], the “Emax (%)” value is given as roughly 105%.

On to `N#Cc1ccc(CSc2nnc(-c3ccccn3)n2Cc2cccs2)cc1` [Compound 2{28}], for which the results for the EC50 at KOR [1] (setting [3]), at KOR [2] and at MOR were 4.64 µM, 3.5 µM and greater than 32 µM, respectively. Moreover, the “Emax (%)” value on KOR [1] is roughly 142%.

On to `COC(=O)c1ccc(CSc2nnc(-c3ccccn3)n2Cc2ccco2)cc1` [Compound 2{29}], for which the EC50 at KOR [1] (setting [3]) is 6.62 µM; at KOR [2] it was 18.5 µM; at MOR, greater than 32 µM. At KOR [1], the “Emax (%)” value is reported as roughly 125%.

As for `COC(=O)c1ccc(CSc2nnc(-c3ccccn3)n2Cc2cccs2)cc1` [Compound 2{30}], the EC50 is 6.14 µM at KOR [1] (setting [3]), 6 µM on KOR [2] and greater than 32 µM on MOR. On KOR [1], the “Emax (%)” value was roughly 154%.

For `CC(=O)Oc1ccc(CSc2nnc(-c3ccccn3)n2Cc2ccco2)cc1` [Compound 2{31}], the EC50 was greater than 20 µM at KOR [1] (setting [3]), greater than 32 µM on KOR [2] and greater than 32 µM on MOR.

With `CC(=O)Oc1ccc(CSc2nnc(-c3ccccn3)n2Cc2cccs2)cc1` [Compound 2{32}], the EC50 on KOR [1] (setting [3]) was greater than 20 µM; at KOR [2], greater than 32 µM; at MOR, greater than 32 µM.

For `CC(C)c1ccc(CSc2nnc(-c3ccccn3)n2Cc2ccco2)cc1` [Compound 2{33}], the EC50 is 5.97 µM at KOR [1] (setting [3]), 2.8 µM at KOR [2] and greater than 32 µM on MOR. For the same molecule, on KOR [1], the “Emax (%)” value was 165%.

Take `COc1ccc(Cn2c(SCc3ccccc3)nnc2-c2ccccn2)cc1` [Entry 1]: on KOR [1] (setting [4]), the EC50 is greater than 20 µM.

`COc1ccc(Cn2c(SCc3ccc(Br)cc3)nnc2-c2ccccn2)cc1` [Entry 2]: on KOR [1] (setting [4]), the EC50 was greater than 20 µM.

For the molecule `COc1ccc(Cn2c(SCc3ccc(Cl)c(Cl)c3)nnc2-c2ccccn2)cc1` [Entry 3], the EC50 on KOR [1] (setting [4]) was 11.8 µM.

Turning to `COc1ccc(Cn2c(SCc3ccc(Cl)c(C(F)(F)F)c3)nnc2-c2ccccn2)cc1` [Entry 4], on KOR [1] (setting [4]), the EC50 was greater than 19.7 µM.

As for `c1ccc(CSc2nnc(-c3ccccn3)n2Cc2ccccc2)cc1` [Entry 5], the EC50 at KOR [1] (setting [4]) was greater than 20 µM.

Turning to `Brc1ccc(CSc2nnc(-c3ccccn3)n2Cc2ccccc2)cc1` [Entry 6], the EC50 on KOR [1] (setting [4]) was found to be 4.06 µM.

For `Clc1ccc(CSc2nnc(-c3ccccn3)n2Cc2ccccc2)cc1Cl` [Entry 7], on KOR [1] (setting [4]), the EC50 amounted to 1.24 µM.

As to `FC(F)(F)c1cc(CSc2nnc(-c3ccccn3)n2Cc2ccccc2)ccc1Cl` [Entry 8], the EC50 at KOR [1] (setting [4]) amounted to 2.22 µM.

For `c1ccc(CSc2nnc(-c3ccccn3)n2Cc2cccnc2)cc1` [Entry 9], the EC50 on KOR [1] (setting [4]) is greater than 20 µM.

As for `Brc1ccc(CSc2nnc(-c3ccccn3)n2Cc2cccnc2)cc1` [Entry 10], the EC50 on KOR [1] (setting [4]) amounted to 8.51 µM.

As for `Clc1ccc(CSc2nnc(-c3ccccn3)n2Cc2cccnc2)cc1Cl` [Entry 11], the EC50 at KOR [1] (setting [4]) came to 0.76 µM.

In the case of `Clc1ccccc1Cn1c(SCc2ccccc2)nnc1-c1ccccn1` [Entry 13], at KOR [1] (setting [4]), the EC50 was greater than 20 µM.

With `FC(F)(F)c1cc(CSc2nnc(-c3ccccn3)n2Cc2ccccc2Cl)ccc1Cl` [Entry 16], the EC50 on KOR [1] (setting [4]) came to 4.3 µM.

On to `c1ccc(CSc2nnc(-c3ccncc3)n2Cc2ccco2)cc1` [Entry 17], for which the EC50 on KOR [1] (setting [4]) was greater than 20 µM.

`FC(F)(F)c1cc(CSc2nnc(-c3ccncc3)n2Cc2ccco2)ccc1Cl` [Entry 20]: the EC50 at KOR [1] (setting [4]) was greater than 20 µM.

On to `Brc1ccc(-c2nnc(SCc3ccccc3)n2Cc2ccco2)cc1` [Entry 21], for which the EC50 on KOR [1] (setting [4]) is greater than 20 µM.

On to `Brc1ccc(CSc2nnc(-c3ccc(Br)cc3)n2Cc2ccco2)cc1` [Entry 22], for which the EC50 on KOR [1] (setting [4]) amounted to 13.5 µM.

As to `Clc1ccc(CSc2nnc(-c3ccc(Br)cc3)n2Cc2ccco2)cc1Cl` [Entry 23], at KOR [1] (setting [4]), the EC50 is 11 µM.

Regarding `FC(F)(F)c1cc(CSc2nnc(-c3ccc(Br)cc3)n2Cc2ccco2)ccc1Cl` [Entry 24], the EC50 at KOR [1] (setting [4]) turned out to be 13.3 µM.
